The source of these data is paper PMC4604765, “Eye drop delivery of pigment epithelium-derived factor-34 promotes retinal ganglion cell neuroprotection and axon regeneration” (Molecular and Cellular Neurosciences, 2015).

The subject of data set [1] is retinal ganglion cells (RGCs). Briefly: RGC survival after optic nerve crush (FluroGold backfilling, retinal wholemounts). The data set is classed as in vivo, rat. Particulars: weekly intravitreal injection, 2.68 nM versus 1.88 nM, 21 days after ONC. As to the method: In a separate set of experiments comprising the same treatment groups, 6 rats/treatment (i.e. 12 eyes/optic nerves/treatment) were used to evaluate RGC axon regeneration by immunostaining with growth-associated protein-43 (GAP-43) in the optic nerve.
In further experiments, 12 rats (24 eyes/optic nerves)/treatment received 1.88 nM PEDF-34 eye drops daily. Six rats (12 eyes)/treatment were used to assess RGC survival at 21 days using FG backfilling, whilst the remaining 6 rats (12 eyes/optic nerves)/treatment were used to evaluate RGC axon regeneration at 21 days by GAP-43 immunohistochemistry. […]
Nineteen days after ONC, FG (Cambridge Biosciences, Cambridge, UK) was injected into the optic nerve, between the lamina cribrosa and the ONC site ([Vigneswara et al., 2013, 2014]). […] The identity of individual retinae was anonymised by a second investigator before image capture using a Zeiss epifluorescent microscope and the number of FG^+ RGCs counted in ImagePro Version 6.0 (Media Cybernetics) from captured images of 12 rectangular areas, 3 from each quadrant, placed at radial distances from the centre of the optic disc of the inner (1/6 eccentricity), midperiphery (1/2 eccentricity) and outer retina (5/6 eccentricity). The mean densities of FG^+ RGCs/mm^2 for each retina were determined.

Data set [2] relates to embryonic rat spinal motor neurons. The settings on record: ref Bilak et al., 2002; cited from earlier work. The source says:
Axotomised RGCs are not viable unless treated with neurotrophic factors such as brain-derived neurotrophic factor, ciliary neurotrophic factor and glial cell line-derived factor ([Ahmed et al., 2006b; Benowitz and Yin, 2007; Watanabe et al., 2003; Yip and So, 2000]). Recently, we confirmed that, after optic nerve crush (ONC), PEDF is RGC neuroprotective and axogenic ([Vigneswara et al., 2013]), whilst other neuroprotective and anti-angiogenic N-terminal fragments of the native peptide exist ([Bilak et al., 2002; Gvritishvili et al., 2010; Li et al., 2006; Mirochnik et al., 2009]) including the ...

For data set [3] the following is noted: single eye drop, ELISA.

Like-named read-outs stand apart in the source and are kept apart here. No end group written: not given here.

Regarding “DPFFKVPVNKLAAAVSNFGYDLYRVRSSTSPTTN [PEDF-34]”, the “RGC survival on increasing the dose” value in data set [1] is reported as “did not improve”. Moreover, the “neuroprotection of embryonic rat spinal motor neurons” value in data set [2] is “not neuroprotective”. Besides, the “level of total PEDF in the retina” value in data set [3] (1.88 nM dose (peak), 0.5 h) worked out at 0.18 ± 0.007 nM. Further, the “level of total PEDF in the vitreous” value in data set [3] (1.88 nM dose (peak), 0.5 h, 6 animals (12 eyes)) came out at 0.42 ± 0.01 nM. Besides, in data set [3] (4 h), the “peak level of total PEDF in the retina” value is 0.24 ± 0.005 nM and the “peak level of total PEDF in the vitreous” value was 0.39 ± 0.004 nM. Besides, in data set [3] (24 h), the “peak level of total PEDF in the retina” value was 0.12 ± 0.002 nM and the “peak level of total PEDF in the vitreous” value was determined as 0.21 ± 0.004 nM.
